US11040958B2, “Triazole antimicrobial derivative, pharmaceutical composition and use thereof” (priority 2017, dated 2021)

Key:
[1] = tested on: Candida albicans ATCC10231; assay: Systemic fungal infection in mice, intravenous administration, survival; format: in vivo; details: ICR mice, tail vein, 5 mg/kg (calculated as voriconazole) once daily for 5 days
In short: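 Male ICR mice (18-22 g) infected via tail vein with C. albicans ATCC10231 at 5*10^6 cells/ml, 0.1 ml/10 g; groups of 10. From 2 h post-infection, 5 mg/kg (as voriconazole) given i.v. once daily for 5 days, saline vehicle (voriconazole in sulfobutyl ether-β-cyclodextrin); survival time recorded over 7 days.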

[2] = Pharmacokinetics after single intravenous administration in rats (plasma voriconazole); details: both, SD, rat, in vivo, iv, 2.5 mg/kg
In short: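 SD rats (180–220 g, 3 male/3 female per group) given single tail-vein dose of 2.5 mg/kg (as voriconazole). Plasma voriconazole measured in blood sampled at multiple time points post-dose.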

[3] = In vitro metabolic stability in human intestinal S9; format: in vitro ADME; details: human, intestinal S9; 37°C, S9 1 mg/mL, compound 10 μM, NADPH regeneration system; read-out: Human intestinal S9 T1/2
[4] = In vitro metabolic stability in rat intestinal S9; format: in vitro ADME; details: rat, intestinal S9, pH 7.4; 37°C, S9 1 mg/mL, compound 10 μM, NADPH regeneration system; read-out: Rat intestinal S9 T1/2
[5] = In vitro metabolic stability in human plasma; format: in vitro ADME; details: human, plasma; 37°C, compound 10 μM; read-out: Human plasma T1/2
[6] = Solid stability test (25°C, RH 60%, 30 days); format: physicochemical; details: 25°C±2°C, relative humidity 60%±2%
[7] = In vitro metabolic stability in rat plasma; format: in vitro ADME; details: rat, plasma; 37°C, compound 10 μM; read-out: Rat plasma T1/2

## CC(OC(=O)SCCO)[n+]1cnn(C[C@](O)(c2ccc(F)cc2F)[C@@H](C)c2ncncc2F)c1 (stereo partly shown) [Compound 16037]
[1]; day 1
  survival rate of mice, day 1: 100%
[1]; day 2
  survival rate of mice, day 2: 100%
[1]; day 3
  survival rate of mice, day 3: 90%
[1]; day 4
  survival rate of mice, day 4: 90%
[1]; day 5
  survival rate of mice, day 5: 90%
[1]; day 6
  survival rate of mice, day 6: 80%
[2]
  AUClast: 9120 ± 3254 ng·h/mL
  T1/2: 148 ± 45 min
[3]
  half-life at 10 µM: 10.8 ± 1.97 min
[4]
  half-life at 10 µM: 16 ± 6.88 min
[5]
  half-life at 10 µM: 7.75 ± 0.56 min
[6]
  Content increase of total impurity (25° C., placed for 30 days): 2.15%
[7]
  half-life at 10 µM: 7.65 ± 0.78 min
